Laboratory results published in US5753715A, “2-disubstituted cyclohexenyl and cyclohexyl antimicrobial agents” (Ortho Pharmaceutical Corporation, priority 1995, dated 1998).
Values after ≈ are worked out from the molar mass of the structure shown.

Columns and labels:
S. epi oc2603 = assay: MIC, microdilution broth method (NCCLS); format: cell-based; design: unit not given here; settings: cation supplemented Mueller Hinton broth, 35° C., 16-20 hours
Method: (§1) The in vitro antimicrobial spectrum of the compounds of the present invention were determined by the microdilution broth method following the test method from the National Committee for […] (NCCLS ). The method is described in the NCCLS Document M7-A2, Vol. 10, No.8 "Methods for Dilution Antimicrobial Susceptibility Test for Bacteria that Grow Aerobically--Second Edition".
(§2) In this method two fold serial dilutions of drug in cation supplemented Mueller Hinton broth are added to wells in microdilution trays. The test organisms are prepared by adjusting the turbidity of actively growing broth cultures so that the final concentration of test organism after it is added to the wells is approximately 5×10^4 colony forming units per well delivered by the Steers replicating device.
(§3) Following inoculation of the microdilution trays, the trays are incubated at 35° C. for 16-20 hours and then read. […] The amount of growth in the wells containing the test compound is compared with the amount of growth in the growth-control wells used in each tray.

Kinase A and SpoOF = biological target: T1, Kinase A and SpoOF (Bacillus subtilis, UniProt P16497); assay: Autophosphorylation of Kinase A and Transphosphorylation of SPoOF Assay; format: biochemical; settings: inhibition of Kinase A autophosphorylation / SpoOF transphosphorylation, [32P]ATP, gel, phosphoimager
T1 sequence (P16497 1-606): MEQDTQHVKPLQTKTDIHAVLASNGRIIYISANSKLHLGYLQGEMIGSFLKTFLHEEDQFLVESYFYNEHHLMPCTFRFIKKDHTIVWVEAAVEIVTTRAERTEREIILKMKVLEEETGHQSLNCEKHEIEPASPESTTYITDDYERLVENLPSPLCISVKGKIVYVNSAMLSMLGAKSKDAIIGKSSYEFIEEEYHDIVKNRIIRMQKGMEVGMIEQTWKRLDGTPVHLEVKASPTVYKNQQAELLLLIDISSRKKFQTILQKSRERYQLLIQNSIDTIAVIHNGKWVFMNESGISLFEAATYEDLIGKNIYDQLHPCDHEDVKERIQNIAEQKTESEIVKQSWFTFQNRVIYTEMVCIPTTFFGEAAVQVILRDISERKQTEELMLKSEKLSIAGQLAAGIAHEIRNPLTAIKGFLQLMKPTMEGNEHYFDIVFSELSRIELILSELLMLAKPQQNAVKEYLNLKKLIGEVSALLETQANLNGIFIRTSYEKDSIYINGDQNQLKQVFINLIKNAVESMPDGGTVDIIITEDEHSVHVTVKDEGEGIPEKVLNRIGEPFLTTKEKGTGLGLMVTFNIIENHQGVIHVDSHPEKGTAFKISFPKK

E. faecalis ACTCC 29212 = assay: MIC, microdilution broth method (NCCLS); format: cell-based; settings: cation supplemented Mueller Hinton broth, 35° C., 16-20 hours; unit assumed
Method: as §1, §2, §3

MRSA oc2089 = assay: MIC, microdilution broth method (NCCLS); format: cell-based; settings: cation supplemented Mueller Hinton broth, 35° C., 16-20 hours; unit assumed
Method: as §1, §2, §3

E. coli oc2605 = assay: MIC, microdilution broth method (NCCLS); format: cell-based; settings: cation supplemented Mueller Hinton broth, 35° C., 16-20 hours; unit assumed
Method: as §1, §2, §3

Ps. aerug. oc161 = assay: MIC, microdilution broth method (NCCLS); format: cell-based; settings: cation supplemented Mueller Hinton broth, 35° C., 16-20 hours; unit assumed
Method: as §1, §2, §3

E. coli oc2530 = assay: MIC, microdilution broth method (NCCLS); format: cell-based; settings: cation supplemented Mueller Hinton broth, 35° C., 16-20 hours; unit assumed
Method: as §1, §2, §3

C. tropicalis = assay: MIC, microdilution broth method (NCCLS); format: cell-based; settings: cation supplemented Mueller Hinton broth, 35° C., 16-20 hours; unit assumed
Method: as §1, §2, §3

E. faecalis oc3041 = assay: MIC, microdilution broth method (NCCLS); format: cell-based; settings: cation supplemented Mueller Hinton broth, 35° C., 16-20 hours; unit assumed
Method: as §1, §2, §3

C. albicans 10231 = assay: MIC, microdilution broth method (NCCLS); format: cell-based; settings: cation supplemented Mueller Hinton broth, 35° C., 16-20 hours; unit assumed
Method: as §1, §2, §3

E. faecium oc2993 = assay: MIC, microdilution broth method (NCCLS); format: cell-based; settings: cation supplemented Mueller Hinton broth, 35° C., 16-20 hours; unit assumed
Method: as §1, §2, §3

A. niger 10578 = assay: MIC, microdilution broth method (NCCLS); format: cell-based; settings: cation supplemented Mueller Hinton broth, 35° C., 16-20 hours; unit assumed
Method: as §1, §2, §3

S. aureus ATCC 29213 = assay: MIC, microdilution broth method (NCCLS); format: cell-based; settings: cation supplemented Mueller Hinton broth, 35° C., 16-20 hours; unit assumed
Method: as §1, §2, §3

Ps. aerug. oc27853 = assay: MIC, microdilution broth method (NCCLS); format: cell-based; settings: cation supplemented Mueller Hinton broth, 35° C., 16-20 hours; unit assumed
Method: as §1, §2, §3

K. pneum. oc1943 = assay: MIC, microdilution broth method (NCCLS); format: cell-based; settings: cation supplemented Mueller Hinton broth, 35° C., 16-20 hours; unit assumed
Method: as §1, §2, §3

MRSA oc667 = assay: MIC, microdilution broth method (NCCLS); format: cell-based; settings: cation supplemented Mueller Hinton broth, 35° C., 16-20 hours; unit assumed
Method: as §1, §2, §3

**Q.** Which “MIC S. epi oc2603” value (S. epi oc2603) does the source give for NCCc1ccc(OCCC2(Cc3cc(Cl)cc(Cl)c3)C=CCCC2)cc1 (stereo not shown) [Compound 59] here?
**A.** Its value is 8.

**Q.** What about the “IC50” value (Kinase A and SpoOF) of the same molecule?
**A.** The value was 46.1 mM.

**Q.** What about the MIC E. faecalis ACTCC 29212 (E. faecalis ACTCC 29212) of the same molecule?
**A.** Its MIC E. faecalis ACTCC 29212 is 8 µg/mL (≈ 19.8 µM).

**Q.** What about the MIC MRSA oc2089 (MRSA oc2089) of the same molecule?
**A.** Its MIC MRSA oc2089 is 8 µg/mL (≈ 19.8 µM).

**Q.** And the MIC E. coli oc2605 (E. coli oc2605)?
**A.** Its MIC E. coli oc2605 is ≥ 64 µg/mL.

**Q.** And the MIC Ps. aerug. oc161 (Ps. aerug. oc161)?
**A.** Its MIC Ps. aerug. oc161 is > 128 µg/mL.

**Q.** What about the MIC E. coli oc2530 (E. coli oc2530) of the same molecule?
**A.** Its MIC E. coli oc2530 is 16 µg/mL (≈ 39.6 µM).

**Q.** And the MIC C. tropicalis (C. tropicalis)?
**A.** The MIC C. tropicalis was 8 µg/mL (≈ 19.8 µM).

**Q.** What about the MIC E. faecalis oc3041 (E. faecalis oc3041) of the same molecule?
**A.** The MIC E. faecalis oc3041 was 8 µg/mL (≈ 19.8 µM).

**Q.** And the MIC C. albicans 10231 (C. albicans 10231)?
**A.** The MIC C. albicans 10231 was 8 µg/mL (≈ 19.8 µM).

**Q.** And the MIC E. faecium oc2993 (E. faecium oc2993)?
**A.** The MIC E. faecium oc2993 was 8 µg/mL (≈ 19.8 µM).

**Q.** And the MIC A. niger 10578 (A. niger 10578)?
**A.** The MIC A. niger 10578 was 44 µg/mL (≈ 109 µM).

**Q.** What about the MIC S. aureus ATCC 29213 (S. aureus ATCC 29213) of the same molecule?
**A.** Its MIC S. aureus ATCC 29213 is 8 µg/mL (≈ 19.8 µM).

**Q.** And the MIC Ps. aerug. oc27853 (Ps. aerug. oc27853)?
**A.** The MIC Ps. aerug. oc27853 was > 128 µg/mL.

**Q.** And the MIC K. pneum. oc1943 (K. pneum. oc1943)?
**A.** Its MIC K. pneum. oc1943 is > 128 µg/mL.

**Q.** And the MIC MRSA oc667 (MRSA oc667)?
**A.** The MIC MRSA oc667 was 8 µg/mL (≈ 19.8 µM).
